Test results: patent US12319912B2, “MicroRNA expression promoting agent and food or beverage for promoting expression of microRNA” (Kewpie Corporation, priority 2019, dated 2025)

Key:
Type in all cases: in vivo, nude mice (BALB/c-nu/nu)
Settings in all cases: 0.25% (w/w) pterostilbene in feed, MM-231-luc-D3H2LN tumors removed at 21 days, female nude mice
miR-34a = assay: Expression level of miR-34a in removed tumors after oral administration of pterostilbene-containing feed (quantitative RT-PCR)
Procedure: (§1) An animal feed for test (pterostilbene-containing powdery animal feed) was prepared by the following method. That is, first, 50 g of corn oil was weighed and heated to 70° C. Pterostilbene was added to the heated corn oil and was dissolved therein. Reagents other than corn oil and pterostilbene (other reagents) were ground in a mortar, and the mixture was mixed. The corn oil in which pterostilbene was dissolved was added to the mixture of other reagents, and the mixture was mixed by sufficiently grinding in a mortar. Subsequently, the mixture was further mixed with a stirrer for about 30 minutes, and thus an animal feed for test was prepared. […]
(§2) At a time point where one week had passed after grouping, the mice in each group were subjected to a cancer cell transplantation experiment. […] Confirmation of whether the cancer cells were transplanted was achieved by leaving the animals for a while after transplantation, intraperitoneally administering a 15 mg/ml luciferin solution (Beetle Luciferin, Potassium Salt, Promega Corporation) in an amount of 150 mg/kg, and measuring cell-derived luminescence (luciferase activity) with IVIS Spectrum (PerkinElmer, Inc.) after about 10 minutes. […] The body weights of the mice were measured in a timely manner. […] Then, luminescence was observed over time with IVIS spectrum every other week from the day of administration initiation. […]

miR-141 = assay: Expression level of miR-141 in removed tumors after oral administration of pterostilbene-containing feed (quantitative RT-PCR)
Procedure: as §1, §2

miR-200c = assay: Expression level of miR-200c in removed tumors after oral administration of pterostilbene-containing feed (quantitative RT-PCR)
Procedure: as §1, §2

miR-193b = assay: Expression level of miR-193b in removed tumors after oral administration of pterostilbene-containing feed (quantitative RT-PCR)
Procedure: as §1, §2

miR-16 = assay: Expression level of miR-16 in removed tumors after oral administration of pterostilbene-containing feed (quantitative RT-PCR)
Procedure: as §1, §2

let-7a = assay: Expression level of let-7a in removed tumors after oral administration of pterostilbene-containing feed (quantitative RT-PCR)
Procedure: as §1, §2

miR-126 = assay: Expression level of miR-126 in removed tumors after oral administration of pterostilbene-containing feed (quantitative RT-PCR)
Procedure: as §1, §2

COc1cc(/C=C/c2ccc(O)cc2)cc(OC)c1 [pterostilbene, Pterostilbene]
promoted: expression of miR-34a as compared to the control group (miR-34a) | expression of miR-141 as compared to the control group (miR-141) | expression of miR-200c as compared to the control group (miR-200c) | expression of miR-193b as compared to the control group (miR-193b) | expression of miR-16 as compared to the control group (miR-16) | expression of let-7a as compared to the control group (let-7a) | expression of miR-126 as compared to the control group (miR-126)
